According to article PMC6757289, “Design and Characterization of SGK3-PROTAC1, an Isoform Specific SGK3 Kinase PROTAC Degrader” (ACS Chemical Biology, 2019):

Target: T1, SGK3 (Homo sapiens, UniProt Q96BR1)
T1 sequence (Q96BR1 1-496): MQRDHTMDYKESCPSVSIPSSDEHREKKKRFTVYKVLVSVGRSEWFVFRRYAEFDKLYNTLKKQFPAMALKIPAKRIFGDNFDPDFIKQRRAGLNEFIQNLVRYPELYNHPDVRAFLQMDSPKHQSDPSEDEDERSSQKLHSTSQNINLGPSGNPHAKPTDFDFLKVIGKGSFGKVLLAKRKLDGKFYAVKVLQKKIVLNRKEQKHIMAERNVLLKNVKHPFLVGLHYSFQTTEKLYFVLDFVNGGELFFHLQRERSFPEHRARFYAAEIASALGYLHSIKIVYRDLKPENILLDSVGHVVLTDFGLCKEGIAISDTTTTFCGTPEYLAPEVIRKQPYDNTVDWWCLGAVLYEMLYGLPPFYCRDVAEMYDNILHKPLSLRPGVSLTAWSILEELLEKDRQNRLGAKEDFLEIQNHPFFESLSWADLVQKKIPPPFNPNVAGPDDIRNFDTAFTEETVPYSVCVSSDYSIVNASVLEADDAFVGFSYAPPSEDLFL
Test: TMT global proteomic analysis of HEK293 cells
Type: cell-based
Set-up: global proteomic analysis of HEK293 cells treated in the presence or absence of 0.3 μM SGK3-PROTAC1; endogenous in cells; host or cells: HEK293
Settings: HEK293, 0.3 μM, 8 h
Protocol: To establish the specificity of SGK3-PROTAC1 employing an unbiased approach, we performed quantitative Tandem–Mass–Tag (TMT)-labeled global proteomic analysis of HEK293 cells treated in the presence or absence of 0.3 μM SGK3-PROTAC1 compared to either 0.3 μM cisSGK3-PROTAC1 or DMSO for 8 h. Experiments were undertaken in triplicate, and analysis in Proteome Discoverer v2.2 using the Mascot search engine allowed relative quantification of 8766 proteins.
Figure 4 TMT proteomic analysis of HEK293 cells treated with SGK3-PROTAC1. (A) Cells were treated with DMSO (control), SGK3-PROTAC1 (0.3 μM), or cisSGK3-PROTAC1 (0.3 μM) for 8 h and lysed. Lysates were subjected to immunoblot analysis with the indicated antibodies. (B) Lysates were examined by quantitative proteomics. […]
Cell culture and proteomic sample preparation
Cells pellets were lysed with 2 ml of lysis buffer (8 M Urea, 50 mM Ammonium bicarbonate containing protease inhibitor and phosphatase inhibitor). The sample were left on ice for 15 min and were then sonicated for 5 min in ice-cold water bath under high intensity with 30 sec on and off. After sonication, benzonase® endonuclease (Merck Millipore) with the volume ratio of 1: 100 were added into the lysate to degrade DNA and RNA. The lysate were then centrifuged at 12,000 rpm for 15 min at 4 °C, and supernatants were transferred into new eppendorf tubes. The protein concentration were measured with BCA assay (Pierce™ BCA Protein Assay Kit, Thermo). The lysate from each sample was reduced with 5 mM DTT at 45 °C for 30 min. Lysates were briefly centrifuged and were cool down to room temperature before alkylation in the dark with 10 mM iodoacetamide at room temperature. The alkylation was then quenched by the addition of 5 mM DTT. Samples were first digested by Lys-C with the weight ratio of 1:200 (w/w) for 4 h at 30 °c. Then, sample were diluted with 50 mM ammonium bicarbonate to 1.5 M Urea concentration. Samples were then digested with trypsin (Pierce trypsin, Thermo) at an enzyme to protein ratio of 1:50 (w/w) at room temperature with gentle shaking for overnight.
The digest was stopped by the addition of 1% TFA (v/v), centrifuged at 10,000 g for 10 min at room temperature.
The supernatant were desalted on 200 mg SepPak tC18 cartridge (Waters). Desalted peptides were dried by vacuum centrifugation using Speedvac (Thermo).
TMT labelling and Basic C18 reverse phase (bRP) chromatography fractionation Each sample (200 μg of peptides each) was re-suspended in 100 μL of 100 mM TEAB buffer. The TMT labelling reagents were equilibrated to room temperature and 41 μL anhydrous acetonitrile was added to each reagent channel and softly vortexed for 10 min. Peptides were transferred to the corresponding TMT channels and incubated for 1 h at room temperature. The reaction was quenched with 8 μL of 5% hydroxylamine. To ensure complete labelling, 1 µg of labelled samples from each channel were analyzed by LC-MS/MS prior to mix. After evaluation, the complete TMT labelled 9 samples were then combined, acidified and dried. Sep-Pak desalting was then performed and the elution was dried to completeness.
Ultimate 3000 high-pressure liquid chromatography (HPLC) system (Dionex) were used for basic C18 reverse phase chromatography fractionation operating at 569 µL/min with two buffers: buffer A (10 mM ammonium formate, pH 10) and buffer B (80% ACN, 10 mM ammonium formate, pH 10). The desalted mixture of TMT-labelled peptides were resuspended in 200 µL of buffer A (10 mM ammonium formate, pH10) and separated on a C18 reverse phase column (4.6 × 250 mm, 3.5 μm, Waters) with a gradient from 3% B to 12.5 % B in 10 min, […]
min, 100% for 5 min, ramping to 3% B in 2.5 min and then 3% for 10 min. A total of 90 fractions (1 min per fraction) were collected before further concatenation into 30 final fractions. Each fraction was then dried and desalted over a C18 StageTip prior to analysis by mass spectrometry. […]

In the case of `Cc1ccc(F)c(S(=O)(=O)Nc2ccc(-c3nc(OC[C@H]4CN(CCCCCCOCCOCCOCC(=O)N[C@H](C(=O)N5C[C@H](O)C[C@H]5C(=O)NCc5ccc(-c6scnc6C)cc5)C(C)(C)C)CCO4)c4cn[nH]c4n3)cc2)c1` [SGK3-PROTAC1], the “Abundances (Grouped)” value is reported as 60.6, the “Ratio: (SGK3-PROTAC1) / (cSGK3-PROTAC1)” value is reported as 0.526 and the “Ratio: (compound) / (DMSO)” value is reported as 0.484. The “selectivity in global proteome (8766 proteins quantified)” value (vs cisSGK3-PROTAC1 or DMSO) was “only SGK3 expression being significantly reduced”.

With `Cc1ccc(F)c(S(=O)(=O)Nc2ccc(-c3nc(OC[C@H]4CN(CCCCCCOCCOCCOCC(=O)N[C@H](C(=O)N5C[C@@H](O)C[C@H]5C(=O)NCc5ccc(-c6scnc6C)cc5)C(C)(C)C)CCO4)c4cn[nH]c4n3)cc2)c1` [cisSGK3-PROTAC1] the “Abundances (Grouped)” value was 115.2 and the “Ratio: (compound) / (DMSO)” value was 0.949.
